Patent publication US9120749B2, “Quinoline derivatives and MELK inhibitors containing the same” (ONCOTHERAPY SCIENCE, INC., priority 2010, dated 2015)
Where two headings read alike, the source gives them in different places.

Key:
[1] = tested on: A549 cells; experiment: Cell-based assay: anti-proliferative activity, Cell Counting Kit-8, 72 hours (A549); settings: Homo sapiens, A549, 72 h, 72 hours
Experimental: (§1) 100 micro-L of cell suspension was seeded onto 96-well microtiter plate (ViewPlate-96FTC, PerkinElmer). The initial cell concentration of T47D, A549, BT-549, and HT-1197 were 3,000 cells/well, 2,000 cells/well and 2,500 cells/well, respectively. Cellular growth was determined using Cell Counting Kit-8 (DOJINDO) at 72 hours after the exposure of the candidate inhibitors. […] Accurate IC50 values were calculated as described previously.

[2] = tested on: HT-1197 cells; experiment: Cell-based assay: anti-proliferative activity, Cell Counting Kit-8, 72 hours (HT-1197, negative control without MELK expression); settings: Homo sapiens, HT1197, 72 h, HT1197 cells (negative control, no MELK expression), 72 hours
Experimental: (§2) To evaluate the expression status of MELK in several cell lines, western blot analysis was performed using crude cell lysate collected from those cells. Anti-MELK antibody (clone 31, BD Biosciences) was used to visualize the expression.
as §1, with “Active candidate inhibitors against MELK were evaluated for their target-specific cytotoxicity using T47D, A549, BT-549, and HT-1197 cells was used for negative control. 100” for “100”

[3] = molecular target: MELK (Homo sapiens, UniProt Q14680); experiment: Kinase assay: MELK activity, phosphorylation of FITC-labeled histone H3 peptide measured by IMAP fluorescence polarization; type: biochemical
Procedure, shortened: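 Compounds, serially diluted from 12.5 mM DMSO stocks to 1% final DMSO, were tested with FITC-labeled histone H3 peptide as substrate. The reaction was stopped with progressive binding solution. Fluorescence polarization was read after 0.5 hour at room temperature.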

[4] = tested on: T47D cells; experiment: Cell-based assay: anti-proliferative activity, Cell Counting Kit-8, 72 hours (T47D); settings: Homo sapiens, T47D, 72 h
Experimental: as §2
as §1, with “Active candidate inhibitors against MELK were evaluated for their target-specific cytotoxicity using T47D, A549, BT-549, and HT-1197 cells was used for negative control. 100” for “100”

[5] = tested on: DU4475 cells; experiment: Cell-based assay: anti-proliferative activity, Cell Counting Kit-8, 72 hours (DU4475); settings: Homo sapiens, DU-4475, 72 h
[6] = 50 micro-M ATP, FITC-labeled histone H3 peptide substrate, IMAP fluorescence polarization, read-out: IC50 (μM) (kinase assay)

Sequence of MELK (Q14680 whole entry, looked up): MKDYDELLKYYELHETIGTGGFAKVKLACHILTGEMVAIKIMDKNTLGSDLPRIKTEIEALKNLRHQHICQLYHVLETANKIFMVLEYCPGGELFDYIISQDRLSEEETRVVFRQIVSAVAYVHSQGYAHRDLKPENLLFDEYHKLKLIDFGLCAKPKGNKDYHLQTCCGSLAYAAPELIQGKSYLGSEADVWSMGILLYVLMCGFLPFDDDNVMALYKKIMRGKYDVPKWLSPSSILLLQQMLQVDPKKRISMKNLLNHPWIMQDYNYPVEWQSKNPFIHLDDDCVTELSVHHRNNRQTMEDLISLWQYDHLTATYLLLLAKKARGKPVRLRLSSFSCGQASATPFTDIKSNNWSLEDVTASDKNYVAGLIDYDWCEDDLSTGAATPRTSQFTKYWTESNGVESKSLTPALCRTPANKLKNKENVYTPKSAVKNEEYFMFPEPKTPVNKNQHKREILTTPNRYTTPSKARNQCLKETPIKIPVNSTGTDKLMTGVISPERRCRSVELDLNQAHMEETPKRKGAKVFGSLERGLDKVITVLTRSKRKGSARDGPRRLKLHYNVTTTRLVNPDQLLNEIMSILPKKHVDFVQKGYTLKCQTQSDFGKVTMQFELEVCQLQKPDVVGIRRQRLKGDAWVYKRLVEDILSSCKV

| SMILES | IC50 [1] [µM] | IC50 [2] [µM] | IC50 [3, 6] [µM] | IC50 [4] [µM] | IC50 [3] [µM] | IC50 [5] [µM] |
| --- | --- | --- | --- | --- | --- | --- |
| CN(C)[C@H]1CC[C@H](Nc2c(C#N)cnc3ccc(-c4cc(F)c(O)c(Cl)c4)cc23)CC1 [Example 446] | 8.4 | 10 | 0.0027 | 0.61 |  |  |
| CN(C)CC1CCN(c2c(C(=O)C3CC3)cnc3ccc(-c4ccc5cc(O)ccc5c4)cc23)CC1 [Example 449] | 0.64 | 3.3 | 0.014 | 1.8 |  |  |
| O=C(c1cnc2ccc(-c3cc(Cl)c(O)c(Cl)c3)cc2c1-c1ccc(NCCN2CCOCC2)nc1)C1CC1 [Example 450] | 4.6 | 12 | 0.018 | 1.8 |  |  |
| CN(C)CCNC(=O)c1ccc(-c2c(C(=O)C3CC3)cnc3ccc(-c4cc(Cl)c(O)c(Cl)c4)cc23)cc1 [Example 451] | 3.8 | 17 | 0.0025 | 0.68 |  |  |
| O=C(c1cnc2ccc(-c3cc(Cl)c(O)c(Cl)c3)cc2c1-c1ccc(CN2CCCC2)cc1)C1CC1 [Example 452] | 1.6 | 10 | 0.0026 | 0.55 |  |  |
| CN(C)CC1CCN(c2c(C(=O)C3CC3)cnc3ccc(-c4ccc5[nH]ccc5c4)cc23)CC1 [Example 453] | 0.48 | 2.3 | 0.094 | 1.2 |  |  |
| CN(C)CC1CCN(c2c(C(=O)C3CC3)cnc3ccc(-c4ccc(O)c(C(F)(F)F)c4)cc23)CC1 [Example 454] | 1.3 | 5.3 | 0.014 | 4 |  |  |
| CN(C)CC(=O)N1CC2CC1CN2c1c(C(=O)C2CC2)cnc2ccc(-c3cc(F)c(O)c(Cl)c3)cc12 (stereo not shown) [Example 455] | 37 | 60 | 0.069 | 12 |  |  |
| COc1cc(-c2ccc3ncc(C(=O)C4CC4)c(N4C[C@@H]5C[C@H]4CN5C(=O)CN(C)C)c3c2)cc(Cl)c1O [Example 456] | 4.2 | 29 |  | 3.8 | 0.0078 |  |
| O=C(c1cnc2ccc(-c3cc(Cl)c(O)c(Cl)c3)cc2c1-c1ccc(N2CCNCC2)nc1)C1CC1 [Example 459] | 1.9 | 10 | 0.0091 | 0.83 |  |  |
| CN1CCN(C[C@H]2CC[C@H](Nc3c(C(=O)C4CC4)cnc4ccc(-c5cc(F)c(O)c(Cl)c5)cc34)CC2)CC1 [Example 636] | 0.2 | 0.94 |  | 0.16 |  | 0.18 |
| COc1cc(-c2ccc3ncc(C(C)=O)c(Nc4ccc(CN5CCN(C)CC5)cc4)c3c2)cc(Cl)c1O [Example 653, 1-(6-(3-chloro-4-hydroxy-5-methoxyphenyl)-4-(4-((4-methylpiperazin-1-yl)methyl)phenylamino)quinolin-3-yl)ethanone] | 0.5 | 1.9 |  | 1.3 |  | 0.32 |
| CN(C)C1CCN(C[C@H]2CC[C@H](Nc3c(C(=O)C4CC4)cnc4ccc(-c5cc(Cl)c(O)c(Cl)c5)cc34)CC2)C1 (stereo partly shown) [Example 663] | 0.22 | 4.6 |  | 0.32 |  | 0.17 |
| CC(=O)c1cnc2ccc(-c3cc(Cl)c(O)c(Cl)c3)cc2c1N[C@H]1CC[C@H](CCN(C)C)CC1 [Example 739, 1-(6-(3,5-dichloro-4-hydroxyphenyl)-4-((trans-4-(2-(dimethylamino)ethyl)cyclohexyl)amino)quinolin-3-yl)ethanone] |  | 4 |  | 0.14 |  | 0.099 |
